Measurements from patent US4068074A, “Cephalosporin derivatives having at the 3-position of the cephem ring a heterocyclic thiomethyl group with a carboxy or sulfo group and at the 7-position of the cephem ring an α-heterocylic acylaminophenyl-acetamide group” (priority 1974, dated 1978).
In brackets after ≈: the same amount, converted by molar mass. Like-named read-outs stand apart in the source and are kept apart here.

How the values were obtained:
Salmonella enteritidis = assay: MIC against bacteria (Table I), strain (10); type: cell-based; details: Salmonella enterica
Source text: (§1) Now, for illustrating the excellent pharmacological effects of the compounds of this invention, the values of MIC (γ/ml.) of the compounds against various bacteria are shown in Table 1, in which the compounds of this invention used are shown by example numbers.
(10) Salmonella enteritidis

[1] = system: Shigella flexneri 2a 1675; assay: MIC against bacteria (Table I), strain (11); type: cell-based; details: 2A1675
Source text: as §1

Staphylococcus Onuma = assay: MIC against bacteria (Table I), strain (18); type: cell-based
Source text: as §1
(18) Staphylococcus Onuma

[2] = system: Proteus mirabilis IXM OM-19; assay: MIC against bacteria (Table I), strain (3); type: cell-based; details: IXMOM19; (3) Proteus mirabilis IXM OM-19; read-out: MIC
Source text: as §1
(3) Proteus mirabilis IXM OM-19

[3] = system: Pseudomonas aeruginosa ATCC 8689; assay: MIC against bacteria (Table I), strain (4); type: cell-based; details: ATCC8689; (4) Pseudomonas aeruginosa ATCC 8689; read-out: MIC
Source text: as §1
(4) Pseudomonas aeruginosa ATCC 8689

[4] = system: Klebsiella pneumoniae ATCC 10031; assay: MIC against bacteria (Table I), strain (8); type: cell-based; details: ATCC10031
Source text: as §1
(8) Klebsiella pneumoniae ATCC 10031

[5] = system: Bacillus megatherium 10778; assay: MIC against bacteria (Table I), strain (13); type: cell-based; details: (13) Bacillus megatherium 10778; read-out: MIC
Source text: as §1

[6] = system: Staphylococcus aureus 209P; assay: MIC against bacteria (Table I), strain (16); type: cell-based
Source text: as §1
(16) Staphylococcus aureus 209P

[7] = system: Pseudomonas aeruginosa 99 (Gentamycin resistant); assay: MIC against bacteria (Table I), strain (5); type: cell-based
Source text: as §1
(5) Pseudomonas aeruginosa 99 (Gentamycin resistant)

Shigella sonnei II 37148 = assay: MIC against bacteria (Table I), strain (12); type: cell-based; details: II37148
Source text: as §1

Salmonella typhi H901 W = assay: MIC against bacteria (Table I), strain (9); type: cell-based; details: Salmonella enterica, TYPHI
Source text: as §1
(9) Salmonella typhi H901 W

[8] = system: Micrococcus flavus ATCC 10240; assay: MIC against bacteria (Table I), strain (15); type: cell-based; details: ATCC10240
Source text: as §1
(15) Micrococcus flavus ATCC 10240

[9] = system: Bacillus subtilis ATCC 6633; assay: MIC against bacteria (Table I), strain (14); type: cell-based; details: ATCC6633; (14) Bacillus subtilis ATCC 6633; read-out: MIC
Source text: as §1
(14) Bacillus subtilis ATCC 6633

Proteus vulgaris 0X 19US = assay: MIC against bacteria (Table I), strain (2); type: cell-based; details: 0X19US; (2) Proteus vulgaris 0X 19US; read-out: MIC
Source text: as §1
(2) Proteus vulgaris 0X 19US

[10] = system: Psuedomonas ovalis IMA 1002; assay: MIC against bacteria (Table I), strain (6); type: cell-based
Source text: as §1
(6) Psuedomonas ovalis IMA 1002

[11] = system: Escherichia coli kauffmann 0-1; assay: MIC against bacteria (Table I), strain (7); type: cell-based; details: Escherichia coli
Source text: as §1
(7) Escherichia coli kauffmann 0-1

Proteus vulgaris OXK US = assay: MIC against bacteria (Table I), strain (1); type: cell-based
Source text: as §1
(1) Proteus vulgaris OXK US

[12] = system: Staphylococcus Shimanishi; assay: MIC against bacteria (Table I), strain (17); type: cell-based
Source text: as §1
(17) Staphylococcus Shimanishi

[13] = system: β-lactamase isolated from Pseudomonas aeruginosa 21; assay: Resistance to β-lactamase: amount of unaltered test sample (Table 3); type: biochemical; details: initial concentration 100γ/ml
Source text: For example, the relation between the amount (γ/ml) of an unaltered test sample at an initial concentration of the sample 100γ/ml against β-lactamase isolated from Pseudomonas aeruginosa 21 at various dilutions of the enzyme were investigated.

[14] = (10) Salmonella enteritidis, read-out: MIC
[15] = (11) Shigella flexneri 2a 1675, read-out: MIC
[16] = (18) Staphylococcus Onuma, read-out: MIC
[17] = (12) Shigella sonnei II 37148, read-out: MIC
[18] = (6) Psuedomonas ovalis IMA 1002, read-out: MIC
[19] = (1) Proteus vulgaris OXK US, read-out: MIC
[20] = (8) Klebsiella pneumoniae ATCC 10031, read-out: MIC
[21] = (16) Staphylococcus aureus 209P, read-out: MIC
[22] = (5) Pseudomonas aeruginosa 99 (Gentamycin resistant), read-out: MIC
[23] = (15) Micrococcus flavus ATCC 10240, read-out: MIC
[24] = (17) Staphylococcus Shimanishi, read-out: MIC

SMILES	MIC (Salmonella enteritidis; [14]) [µg/mL]	MIC [1, 15] [µg/mL]	MIC (Staphylococcus Onuma; [16]) [µg/mL]	MIC [2] [µg/mL]	MIC [3] [µg/mL]	MIC ([4]; Klebsiella pneumoniae) [µg/mL]	MIC [5] [µg/mL]	MIC ([6]; Staphylococcus aureus, 209P) [µg/mL]	MIC ([7]; Pseudomonas aeruginosa) [µg/mL]	MIC (Shigella sonnei II 37148; [17]) [µg/mL]	MIC (Salmonella typhi H901 W) [µg/mL]	MIC [9] [µg/mL]	MIC (Proteus vulgaris 0X 19US) [µg/mL]	MIC [10, 18] [µg/mL]	MIC [11] [µg/mL]	MIC (Proteus vulgaris OXK US; [19]) [µg/mL]	MIC [4, 20] [µg/mL]	MIC [6, 21] [µg/mL]	MIC [8, 23] [µg/mL]	MIC [12, 24] [µg/mL]	other results
Nn1c(SCC(=O)O)nnc1SCC1=C(C(=O)O)N2C(=O)[C@@H](NC(=O)[C@H](NC(=O)c3cnccc3O)c3ccccc3)[C@H]2SC1 [Example 30, 7-[D-α-(4-hydroxynicotinoylamido)-α-phenylacetamido]-3-(1-amino-5-carboxymethylthio-1,3,4-triazol-2-yl)thiomethyl-Δ^3-cephem-4-carboxylic acid]	1.56 (≈ 2.32 µM)	6.25 (≈ 9.29 µM)	25 (≈ 37.2 µM)	0.78 (≈ 1.16 µM)	25 (≈ 37.2 µM)	12.5 (≈ 18.6 µM)	0.78 (≈ 1.16 µM)	1.56 (≈ 2.32 µM)	12.5 (≈ 18.6 µM)	12.5 (≈ 18.6 µM)	6.25 (≈ 9.29 µM)	0.78 (≈ 1.16 µM)	0.78 (≈ 1.16 µM)	25 (≈ 37.2 µM)	6.25 (≈ 9.29 µM)	< 0.09	–	–	–	–	MIC ([8]; Micrococcus flavus): 12.5 µg/mL (≈ 18.6 µM); MIC ([12]; Staphylococcus): 12.5 µg/mL (≈ 18.6 µM)
O=C(O)CSc1nnc(SCC2=C(C(=O)O)N3C(=O)[C@@H](NC(=O)[C@H](NC(=O)c4csccc4=O)c4ccccc4)[C@H]3SC2)s1 [Example 10]	0.19 (≈ 0.275 µM)	–	3.13 (≈ 4.52 µM)	0.39 (≈ 0.564 µM)	25 (≈ 36.1 µM)	–	0.39 (≈ 0.564 µM)	–	–	–	1.56 (≈ 2.25 µM)	0.19 (≈ 0.275 µM)	< 0.09	50 (≈ 72.3 µM)	6.25 (≈ 9.03 µM)	< 0.09	3.13 (≈ 4.52 µM)	0.39 (≈ 0.564 µM)	3.13 (≈ 4.52 µM)	3.13 (≈ 4.52 µM)	MIC ([1]; Shigella flexneri): 1.56 µg/mL (≈ 2.25 µM); MIC [7, 22]: 50 µg/mL (≈ 72.3 µM); MIC (Shigella sonnei II 37148; Shigella sonnei): 6.25 µg/mL (≈ 9.03 µM)
O=C(O)CCSc1nnc(SCC2=C(C(=O)O)N3C(=O)[C@@H](NC(=O)[C@H](NC(=O)c4cnccc4O)c4ccccc4)[C@H]3SC2)s1 [Example 5, 7-[D-α-(4-hydroxynicotinoylamido)-α-phenylacetamido]-3-(5-carboxyethylthio-1,3,4-thiadiazol-2-yl)-thiomethyl-Δ^3-cephem-4-carboxylic acid]	0.39 (≈ 0.566 µM)	1.56 (≈ 2.26 µM)	–	0.78 (≈ 1.13 µM)	12.5 (≈ 18.1 µM)	6.25 (≈ 9.07 µM)	0.78 (≈ 1.13 µM)	1.56 (≈ 2.26 µM)	6.25 (≈ 9.07 µM)	6.25 (≈ 9.07 µM)	1.56 (≈ 2.26 µM)	0.39 (≈ 0.566 µM)	0.19 (≈ 0.276 µM)	–	6.25 (≈ 9.07 µM)	< 0.09	–	–	3.13 (≈ 4.54 µM)	–	MIC (Staphylococcus Onuma; Staphylococcus): 6.25 µg/mL (≈ 9.07 µM); MIC [10]: 6.25 µg/mL (≈ 9.07 µM); MIC ([12]; Staphylococcus): 6.25 µg/mL (≈ 9.07 µM)
Cc1nnc(SCC2=C(C(=O)O)N3C(=O)[C@@H](NC(=O)Cn4cnnn4)[C@H]3SC2)s1 [Cephazolin, reference compound]	–	1.56 (≈ 3.43 µM)	–	6.25 (≈ 13.8 µM)	> 100	1.56 (≈ 3.43 µM)	0.19 (≈ 0.418 µM)	–	–	1.56 (≈ 3.43 µM)	1.56 (≈ 3.43 µM)	0.19 (≈ 0.418 µM)	25 (≈ 55 µM)	> 100	1.56 (≈ 3.43 µM)	–	–	0.19 (≈ 0.418 µM)	0.19 (≈ 0.418 µM)	0.78 (≈ 1.72 µM)	MIC (Salmonella enteritidis; ENTERITIDIS): 1.56 µg/mL (≈ 3.43 µM); MIC (Staphylococcus Onuma; Staphylococcus): 1.56 µg/mL (≈ 3.43 µM); MIC [7, 22]: > 100 µg/mL; Amount of unaltered test sample ([13]; β-lactamase dilution ×2): 0 µg/mL; Amount of unaltered test sample ([13]; β-lactamase dilution ×4): 0 µg/mL; Amount of unaltered test sample ([13]; β-lactamase dilution ×8): 0 µg/mL; Amount of unaltered test sample ([13]; β-lactamase dilution ×16): 0 µg/mL; Amount of unaltered test sample ([13]; β-lactamase dilution ×32): 0 µg/mL; Amount of unaltered test sample ([13]; β-lactamase dilution ×64): 9.2 µg/mL; Amount of unaltered test sample ([13]; β-lactamase dilution ×128): 21.5 µg/mL; Amount of unaltered test sample ([13]; β-lactamase dilution ×256): 84.6 µg/mL; Amount of unaltered test sample ([13]; β-lactamase dilution ×512): 96.7 µg/mL; Amount of unaltered test sample ([13]; β-lactamase dilution ×1024): 100 µg/mL; MIC (Proteus vulgaris OXK US; Proteus vulgaris): 3.13 µg/mL (≈ 6.89 µM)
CC(=O)OCC1=C(C(=O)O)N2C(=O)[C@@H](NC(=O)[C@H](N)c3ccccc3)[C@H]2SC1 [Cephaloglycin, reference compound]	3 (≈ 7.4 µM)	3 (≈ 7.4 µM)	3 (≈ 7.4 µM)	100 (≈ 247 µM)	> 100	–	1 (≈ 2.47 µM)	–	> 100	10 (≈ 24.7 µM)	3 (≈ 7.4 µM)	0.3 (≈ 0.74 µM)	100 (≈ 247 µM)	> 100	100 (≈ 247 µM)	25 (≈ 61.7 µM)	25 (≈ 61.7 µM)	1 (≈ 2.47 µM)	0.3 (≈ 0.74 µM)	3 (≈ 7.4 µM)	–
Cc1nc(SCC2=C(C(=O)O)N3C(=O)[C@@H](NC(=O)[C@H](NC(=O)c4cnccc4O)c4ccccc4)[C@H]3SC2)sc1C(=O)O [Example 14, 7-[D-α-(4-hydroxynicotinoylamido)-α-phenylacetamido]-3-(4-methyl-5-carboxythiazol-2-yl)thiomethyl-Δ^3-cephem-4-carboxylic acid]	0.78 (≈ 1.22 µM)	1.56 (≈ 2.43 µM)	12.5 (≈ 19.5 µM)	0.19 (≈ 0.296 µM)	25 (≈ 39 µM)	–	0.39 (≈ 0.608 µM)	1.56 (≈ 2.43 µM)	–	3.13 (≈ 4.88 µM)	1.56 (≈ 2.43 µM)	0.78 (≈ 1.22 µM)	0.78 (≈ 1.22 µM)	25 (≈ 39 µM)	3.13 (≈ 4.88 µM)	0.19 (≈ 0.296 µM)	6.25 (≈ 9.74 µM)	–	6.25 (≈ 9.74 µM)	12.5 (≈ 19.5 µM)	MIC [7, 22]: 12.5 µg/mL (≈ 19.5 µM)
